In patent publication US3981999A, “Fish disease treatment” (Dainippon Pharmaceutical Co., Ltd., priority 1973, dated 1976) one finds MIC data, which are given here for one compound.

SMILES strings stand for the structures. ≈ marks a conversion by molar mass, not a printed value.

Assay in all cases: MIC by broth serial dilution
What all share (format): cell-based

Test [1] concerns Pseudomonas anguilliseptica T-2. As to conditions: T2, bouillon pH 7.2, 20°C, 7 hours, read-out: MIC. As to the method:
(§1) The MIC (minimum inhibitory concentration) of a test compound was determined by the serial dilution method on various pathogenic microorganisms incubated under the following experimental conditions. The lowest concentration at which the visible growth of the organism was inhibited was considered as MIC. […]
(§2) the broth-dilution method bouillon, pH 7.2, except for Vibrio (3% NaCl-bouillon, pH 7.2), Pasteurella (2% NaCl-Brain Heart Infusion, pH 7.3 and Chondrococcus (TY medium, pH 7.3) 1 drop of a bacterial suspension per test tube (100 - 1000 minimal growing units in the medium) 25°C, except for Pseud. anguilliseptica (20°C)
(§3) 48 hours, except for Pseudo. anguilliseptica ([…])

Test [2] deals with Aeromonas salmonicida Hara-1. The conditions noted are these: HARA1, bouillon pH 7.2, 25°C, 48 hours, read-out: MIC. As to the method:
as §1, §2, §3

Test [3] deals with Aeromonas salmonicida Kusuda. The conditions noted are these: bouillon pH 7.2, 25°C, 48 hours, read-out: MIC. As to the method:
as §1, §2, §3

For test [4], the system named is Vibrio anguillarum K-3. As to conditions: K3, 3% NaCl-bouillon pH 7.2, 25°C, 48 hours, read-out: MIC. As to the method:
as §1, §2, §3

For test [5], the system named is Aeromonas salmonicida Kawazu. As to conditions: bouillon pH 7.2, 25°C, 48 hours, read-out: MIC. As to the method:
as §1, §2, §3

Test [6] concerns Chondrococcus sp K-2. As to conditions: TY medium pH 7.3, 25°C, 48 hours; read-out: MIC. As to the method: as §1, §2, §3
In test [7] the test system is Chondrococcus sp K-1. As to conditions: TY medium pH 7.3, 25°C, 48 hours; read-out: MIC. As to the method:
as §1, §2, §3

The subject of test [8] is Vibrio anguillarum Km-30. The conditions noted are these: KM30, 3% NaCl-bouillon pH 7.2, 25°C, 48 hours, read-out: MIC. As to the method:
as §1, §2, §3

In test [9] the test system is Aeromonas salmonicida Hara-2. As to conditions: HARA2, bouillon pH 7.2, 25°C, 48 hours, read-out: MIC. As to the method: as §1, §2, §3
The subject of test [10] is Vibrio anguillarum A-8. The conditions noted are these: A8, 3% NaCl-bouillon pH 7.2, 25°C, 48 hours, read-out: MIC. As to the method: as §1, §2, §3

For the compound `CCn1cc(C(=O)O)c(=O)c2cnc(N3CCCC3)nc21` [PA, 5,8-dihydro-2-pyrrolidino-8-ethyl-5-oxopyrido[2,3-d]pyrimidine-6-carboxylic acid], the MIC in [1] was 0.1 µg/mL (≈ 0.347 µM); in [2] it was 0.1 µg/mL (≈ 0.347 µM); in [3], 0.1 µg/mL (≈ 0.347 µM); in [4], 1 µg/mL (≈ 3.47 µM); in test [5] it was 0.1 µg/mL (≈ 0.347 µM); in test [6] it was 0.3 µg/mL (≈ 1.04 µM). The MIC in [7] is 0.3 µg/mL (≈ 1.04 µM); in test [8], 3 µg/mL (≈ 10.4 µM); in [9], 1 µg/mL (≈ 3.47 µM); in test [10], 3 µg/mL (≈ 10.4 µM).
